From the NIST ThermoML archive (doi:10.1016/j.tca.2019.05.011)

Key:
[1] = molar heat capacity at constant pressure; conditions: 101.33 kPa, Liquid, Vacuum adiabatic calorimetry
[2] = Liquid, Closed cell (Static) method

CC(C)O [propan-2-ol]
Conditions	molar heat capacity at constant pressure [J/K/mol]	vapor or sublimation pressure [kPa]
[1], 190 K	111.12	–
[1], 200 K	112.89	–
[1], 210 K	115.01	–
[1], 220 K	117.52	–
[1], 230 K	120.46	–
[1], 240 K	123.87	–
[1], 250 K	127.81	–
[1], 260 K	132.31	–
[1], 270 K	137.41	–
[1], 280 K	143.19	–
[1], 290 K	149.68	–
[1], 300 K	156.94	–
[1], 310 K	165.02	–
[1], 320 K	173.99	–
[1], 330 K	183.9	–
[2], 297.8 K	–	5.781
[2], 303.1 K	–	7.995
[2], 315.8 K	–	16.22
[2], 332.1 K	–	36.06
[2], 344.7 K	–	63.92
